Experiments:
[1] = Study 5: controlled release 40 mg vs immediate release 4x10 mg, fed and fasting; type: in vivo, human; settings: food effect
Text: Subjects randomized to Treatment 5A and Treatment 5C, as described below, were in a fasted state following a 10-hour overnight fast. […] There was a 14-day washout interval between the four dose administrations. The subjects were confined to the clinic during each study period. Subject assigned to receive Treatment 5A and Treatment 5B were discharged from the clinic on Day 3 following the 48-hour procedures, and subjects assigned to receive Treatment 5C and Treatment 5D were discharged from the clinic on Day 2 following the 36-hour procedures. On Day 1 of each study period the subjects received one of four treatments:
Blood samples (7 ml) were collected during each study period at the 0 hour (predose), and at 0.25, 0.5, 0.75, 1.0, 1.5, 2, 3, 4, 5, 6, 8, 10, 12, 24, 36, 48, 60, and 72 hours post-dose (19 samples) for subjects randomized to all Treatments.

[2] = In vivo ethanol study: oxymorphone 40 mg ER tablets with 240 mL of 40%, 20%, 4%, 0% ethanol; design: species or system human
Method: The study design was a randomized, open-label, single-dose, four-period crossover in 28 subjects. […] Subjects were fasted overnight for at least 8 hours prior to dosing. Water was allowed ad lib except from 1 hour before dosing until 1 hour after dosing. A standardized meal was served 4 hours and 10 hours after dosing.
A) 40% ethanol B) 20% ethanol C) 4% ethanol D) 0% ethanol
Serial blood samples were obtained from 0 to 48 hours after dosing. Plasma samples were assayed for oxymorphone. Pharmacokinetic parameters for oxymorphone were determined using non-compartmental methods. […] Any treatment in which a subject vomited during the dosing interval (0-12 hours) was excluded from the primary pharmacokinetic analysis.

[3] = in vivo; cited from earlier work
[4] = Bioavailability in elderly, hepatically and renally impaired patients
[5] = elderly patients (65 years old or older)

**Q.** With CN1CC[C@]23c4c5ccc(O)c4O[C@H]2C(=O)CC[C@@]3(O)[C@H]1C5 [oxymorphone, 14-hydroxydihydromorphinone] as the compound, how does the “Cmax greater with a meal than without” value [1] read?
**A.** 50%

**Q.** And the “AUC change with ethanol” value ([2]; 240 mL of 20% or 4% ethanol concomitantly)?
**A.** essentially unchanged

**Q.** What about the “Cmax increase in individual subjects, up to” value ([2]; 240 mL of 40% ethanol) of the same compound?
**A.** up to 270%

**Q.** And the “AUC change with ethanol” value ([2]; 240 mL of 40% ethanol concomitantly)?
**A.** not statistically significantly changed

**Q.** And the “Cmax increase (average) vs 0% ethanol” value ([2]; 240 mL of 40% ethanol, excluding subjects who vomited)?
**A.** 70%

**Q.** And the oral bioavailability [3]?
**A.** about 10%

**Q.** What about the “increase in Cmax” value [4, 5] of the same compound?
**A.** about 1.5 fold

**Q.** What about the increase in bioavailability [4, 5] of the same compound?
**A.** about 1.4 fold

**Q.** What about the bioavailability ([4]; hepatically impaired patients) of the same compound?
**A.** increased

**Q.** What about the bioavailability ([4]; renally impaired patients) of the same compound?
**A.** increased

— patent US20090124650A1 (priority 2007, published 2009)
